According to PMC9604546, “Drosophila HisT is a specific histamine transporter that contributes to histamine recycling in glia” (Science Advances, 2022):

How the values were obtained:
Assay type in all cases: cell-based
human OCT2 [1] = target: T1, human OCT2 (Homo sapiens, UniProt O15244); assay: [3H]-histamine uptake in transfected HEK293T cells; conditions: labelled compound; 2.5 uM, 30 min, 37 C, pH 7.4, ECF buffer with 120 mM NaCl
T1 construct: gene SLC22A2
T1 sequence (O15244 1-555): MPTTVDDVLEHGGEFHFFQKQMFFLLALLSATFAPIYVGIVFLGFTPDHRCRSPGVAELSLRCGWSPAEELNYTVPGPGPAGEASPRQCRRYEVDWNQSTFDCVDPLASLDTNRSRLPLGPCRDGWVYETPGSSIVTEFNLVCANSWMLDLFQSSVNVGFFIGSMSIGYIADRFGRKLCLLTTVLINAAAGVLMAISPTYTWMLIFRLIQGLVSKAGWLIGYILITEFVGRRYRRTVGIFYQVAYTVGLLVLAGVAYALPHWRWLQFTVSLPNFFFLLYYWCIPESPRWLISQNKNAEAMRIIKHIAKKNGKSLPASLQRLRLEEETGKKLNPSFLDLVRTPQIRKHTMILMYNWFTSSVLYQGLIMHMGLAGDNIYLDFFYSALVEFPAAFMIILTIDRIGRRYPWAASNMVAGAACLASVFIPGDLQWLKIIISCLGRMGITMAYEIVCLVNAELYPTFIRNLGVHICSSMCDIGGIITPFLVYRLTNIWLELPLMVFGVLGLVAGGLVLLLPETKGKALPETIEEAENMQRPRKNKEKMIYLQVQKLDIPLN

HisT (CG1358) = target: T2, HisT (CG1358) (Drosophila melanogaster, UniProt A0A0B4JD50); assay: [3H]-histamine uptake in transfected HEK293T cells; conditions: labelled compound; 2.5 uM, 30 min, 37 C, pH 7.4, ECF buffer with 120 mM NaCl
T2 sequence (A0A0B4JD50 1-482): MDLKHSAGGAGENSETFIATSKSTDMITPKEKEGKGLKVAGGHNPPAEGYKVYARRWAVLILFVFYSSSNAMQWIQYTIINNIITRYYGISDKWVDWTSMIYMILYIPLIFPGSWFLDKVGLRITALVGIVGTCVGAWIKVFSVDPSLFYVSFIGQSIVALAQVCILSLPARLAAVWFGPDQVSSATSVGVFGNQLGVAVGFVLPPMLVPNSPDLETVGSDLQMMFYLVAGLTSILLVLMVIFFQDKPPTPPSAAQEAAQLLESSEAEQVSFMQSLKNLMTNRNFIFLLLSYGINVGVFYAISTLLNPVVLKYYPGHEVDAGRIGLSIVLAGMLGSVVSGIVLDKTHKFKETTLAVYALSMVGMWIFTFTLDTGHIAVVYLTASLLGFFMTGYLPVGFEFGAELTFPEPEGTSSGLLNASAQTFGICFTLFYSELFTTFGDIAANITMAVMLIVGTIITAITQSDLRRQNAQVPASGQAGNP

human OCT2 [2] = target: T1, human OCT2; assay: competition of [3H]-histamine uptake in transfected HEK293T cells; conditions: 2.5 uM [3H]-histamine, 30 min, 37 C, pH 7.4; competitor concentration for OCT2 not given

SMILES | [3H]-histamine uptake in transfected HEK293T cells (human OCT2 [1]) | [3H]-histamine uptake in transfected HEK293T cells (HisT (CG1358)) | inhibition of [3H]-histamine uptake (human OCT2 [2])
NCCc1c[nH]cn1 [histamine] | OCT2), which mediates the low-affinity transport of some monoamine neurotransmitters including histamine | is the only transporter exhibiting histamine uptake activity in vitro | 
NCCc1c[nH]c2ccc(O)cc12 [serotonin] |  |  | OCT2-mediated [^3H]-histamine uptake was completely blocked by dopamine, serotonin, and carcinine
NCCC(=O)NCCc1c[nH]cn1 [carcinine] |  |  | OCT2-mediated [^3H]-histamine uptake was completely blocked by dopamine, serotonin, and carcinine
NCCc1ccc(O)c(O)c1 [dopamine] |  |  | OCT2-mediated [^3H]-histamine uptake was completely blocked by dopamine, serotonin, and carcinine
